The NIST ThermoML archive (doi:10.1021/je100610v)
± gives the expanded uncertainty stated by the source.

How the values were obtained:
[1] = 101 kPa, Liquid; for speed of sound: Pulse-echo method
[2] = molar heat capacity at constant pressure; conditions: 101 kPa, Liquid
[3] = xn = mol fraction of the nth substance listed; conditions: 101 kPa, Liquid, x2 = 0; for speed of sound: Pulse-echo method

Structure (SMILES): ClCCCCCCCl [1,6-dichlorohexane]
- speed of sound ([1]; 293.01 K): 1337.8 ± 2.1 m/s
- mass density ([1]; 293.15 K): 1068.33 ± 1.3 kg/m3
- mass density ([1]; 298.15 K): 1063.61 ± 1.2 kg/m3
- speed of sound ([1]; 298.18 K): 1319.7 ± 2.1 m/s
- mass density ([1]; 303.15 K): 1058.87 ± 1.2 kg/m3
- speed of sound ([1]; 303.15 K): 1302.4 ± 2.1 m/s
- speed of sound ([1]; 308.14 K): 1285 ± 2.1 m/s
- mass density ([1]; 308.15 K): 1054.14 ± 1.2 kg/m3
- mass density ([1]; 313.15 K): 1049.39 ± 1.2 kg/m3
- speed of sound ([1]; 313.23 K): 1267.4 ± 2.1 m/s
- molar heat capacity at constant pressure ([2]; 293.15 K): 239.21 ± 1.9 J/K/mol
- molar heat capacity at constant pressure ([2]; 294.15 K): 239.5 ± 1.9 J/K/mol
- molar heat capacity at constant pressure ([2]; 295.15 K): 239.69 ± 1.9 J/K/mol
- molar heat capacity at constant pressure ([2]; 296.15 K): 240.02 ± 1.9 J/K/mol
- molar heat capacity at constant pressure ([2]; 297.15 K): 240.35 ± 1.9 J/K/mol
- molar heat capacity at constant pressure ([2]; 298.15 K): 240.64 ± 1.9 J/K/mol
- molar heat capacity at constant pressure ([2]; 299.15 K): 240.85 ± 1.9 J/K/mol
- molar heat capacity at constant pressure ([2]; 300.15 K): 241.15 ± 1.9 J/K/mol
- molar heat capacity at constant pressure ([2]; 301.15 K): 241.46 ± 1.9 J/K/mol
- molar heat capacity at constant pressure ([2]; 302.15 K): 241.8 ± 1.9 J/K/mol
- molar heat capacity at constant pressure ([2]; 303.15 K): 242.06 ± 1.9 J/K/mol
- molar heat capacity at constant pressure ([2]; 304.15 K): 242.34 ± 1.9 J/K/mol
- molar heat capacity at constant pressure ([2]; 305.15 K): 242.62 ± 1.9 J/K/mol
- molar heat capacity at constant pressure ([2]; 306.15 K): 242.83 ± 1.9 J/K/mol
- molar heat capacity at constant pressure ([2]; 307.15 K): 243.21 ± 1.9 J/K/mol
- molar heat capacity at constant pressure ([2]; 308.15 K): 243.49 ± 1.9 J/K/mol
- molar heat capacity at constant pressure ([2]; 309.15 K): 243.73 ± 1.9 J/K/mol
- molar heat capacity at constant pressure ([2]; 310.15 K): 244 ± 1.9 J/K/mol
- molar heat capacity at constant pressure ([2]; 311.15 K): 244.35 ± 1.9 J/K/mol
- molar heat capacity at constant pressure ([2]; 312.15 K): 244.68 ± 1.9 J/K/mol
- molar heat capacity at constant pressure ([2]; 313.15 K): 244.91 ± 1.9 J/K/mol

Structure (SMILES): CCCCCCC [heptane]
- speed of sound ([1]; 292.7 K): 1154.1 ± 0.77 m/s
- mass density ([1]; 293.15 K): 683.79 ± 0.93 kg/m3
- speed of sound ([1]; 298 K): 1131.1 ± 0.76 m/s
- mass density ([1]; 298.15 K): 679.56 ± 0.94 kg/m3
- speed of sound ([1]; 302.98 K): 1109.5 ± 0.75 m/s
- mass density ([1]; 303.15 K): 675.3 ± 0.95 kg/m3
- speed of sound ([1]; 308.06 K): 1087.4 ± 0.75 m/s
- mass density ([1]; 308.15 K): 671.02 ± 0.96 kg/m3
- mass density ([1]; 313.15 K): 666.71 ± 0.97 kg/m3
- speed of sound ([1]; 313.45 K): 1064.3 ± 0.74 m/s

Structure (SMILES): CCCCCCC [heptane] + ClCCCCCCCl
- speed of sound ([3]; 292.7 K): 1154.1 ± 0.77 m/s
- mass density ([3]; 293.15 K): 683.79 ± 0.93 kg/m3
- speed of sound ([3]; 298 K): 1131.1 ± 0.76 m/s
- mass density ([3]; 298.15 K): 679.56 ± 0.94 kg/m3
- speed of sound ([3]; 302.98 K): 1109.5 ± 0.75 m/s
- mass density ([3]; 303.15 K): 675.3 ± 0.95 kg/m3
- speed of sound ([3]; 308.06 K): 1087.4 ± 0.75 m/s
- mass density ([3]; 308.15 K): 671.02 ± 0.96 kg/m3
- mass density ([3]; 313.15 K): 666.71 ± 0.97 kg/m3
- speed of sound ([3]; 313.45 K): 1064.3 ± 0.74 m/s
